Activity calls are given as the source filed them. No cut-off for these calls is given here.
Experiments:
[1] = Antitumor activity against […] cancer cells xenografted in BALB/c mouse assessed as tumor weight at 80 mg/kg, ig administered every day for 10 days (reference value: 1.68 +/- 0.78 g); assay type: functional, Lewis lung carcinoma; details: time 10 day
[2] = Antitumor activity against […] cancer cells xenografted in BALB/c mouse assessed as tumor weight at 27 mg/kg, ig administered every day for 10 days (reference value: 1.68 +/- 0.78 g); assay type: functional, Lewis lung carcinoma; details: time 10 day
[3] = Antitumor activity against […] cancer cells xenografted in BALB/c mouse assessed as tumor growth inhibition at 27 mg/kg, ig administered every day for 10 days relative to control; assay type: functional; details: Lewis lung carcinoma, po, 240 h, time 10 day, read-out: TGI
[4] = Antitumor activity against […] cancer cells xenografted in BALB/c mouse assessed as lung weight at 240 mg/kg, ig administered every day for 10 days measured post last dose (reference value: 0.13 +/- 0.03 g); assay type: functional, Lewis lung carcinoma; details: time 10 day
[5] = Toxicity in […] lung cancer cells xenografted BALB/c mouse assessed as survival rate at 240 mg/kg, ig administered every day for 10 days (reference value: 100%); assay type: organism-based; details: in vivo, po, time 10 day
[6] = Antitumor activity against […] cells xenografted in KM mouse assessed as tumor growth inhibition at 240 mg/kg, ig administered every day for 10 days relative to control; assay type: functional; details: H22, po, 240 h, time 10 day, read-out: TGI
[7] = Antitumor activity against […] cells xenografted in KM mouse assessed as tumor growth inhibition at 80 mg/kg, ig administered every day for 10 days relative to control; assay type: functional; details: H22, po, 240 h, time 10 day, read-out: TGI
[8] = Antitumor activity against […] cells xenografted in KM mouse assessed as liver weight at 27 mg/kg, ig administered every day for 10 days measured post last dose (reference value: 1.57 +/- 0.3 g); assay type: functional; details: time 10 day
[9] = Toxicity in […] cells xenografted KM mouse assessed as net weight at 240 mg/kg, ig administered every day for 10 days (reference value: 9.45 +/- 4 g); assay type: organism-based; details: in vivo, po, 240 h, time 10 day
[10] = target: Dihydropyrimidinase-related protein 2 (Homo sapiens) (UniProt Q16555); assay: Binding affinity to dihydropyrimidinase-related protein 2 isoform 1 in human A549 cells by LC-MS/MS analysis; assay type: cell-based

CC(C)[C@@H](C)/C=C/[C@@H](C)[C@H]1CC[C@H]2C3=CC=C4C[C@@H](O)CC[C@]4(C)[C@H]3CC[C@]12C [ERGOSTEROL]
Activity [1]: 1.21 g
Activity [2]: 1.42 g
inhibition in vivo at 27 mg/kg [3]: 15.8%
Activity [4]: 0.13 g
survival at 240 h [5]: 100%
inhibition in vivo at 240 mg/kg [6]: 64.4%
inhibition in vivo at 80 mg/kg [7]: 41.1%
Activity [8]: 1.67 g
Activity [9]: 5.7 g
Activity [10]: Active

From ChEMBL document CHEMBL4706663, “Large-scale isolation and antitumor mechanism evaluation of compounds from the traditional Chinese medicine Cordyceps Militaris” (Eur J Med Chem, 2021)
